Test results published in patent US20030129222A1, “Liposomal imexon” (priority 2000, published 2003).
Counter-ions that a name gives are not always drawn. Like-named read-outs stand apart in the source and are kept apart here. Starred links: 1 amine or outer side, 2 acyl side, 3 side chain; linkers in the order of their positions; H or OH if unused. Positions of bridges follow the written chain, without caps; N, C: chain ends. Non-standard residues stand in square brackets, D forms with d. Residues, ends and D or L forms follow the SMILES beside them. Chains are numbered I, II in the order given. Actinocin(9to1) = Cc1c2oc3c(C)ccc(C(=O)[*:1])c3nc-2c(C(=O)[*:2])c(N)c1=O; NMeV = CN[C@H](C(=O)O)C(C)C; Sar = CNCC(=O)O

Legend:
[1] = test system: L1210 leukemia, Sens; test: Cytotoxicity in tumor cell culture, MTT assay; assay type: cell-based, murine; details: MTT assay; read-out: IC50 against human mouse tumors, L1210 leukemia Sens
Text: (§1) Relative potencies of the N-substituted 2-cyanoaziridine-1-carboxamides in a panel of tumor cell cultures are compared in Table 3. This panel includes the following lines of human tumor cells: sensitive and imexon-resistant lines of multiple myeloma (Matsuoka et al., 1967); ovarian carcinoma resistant to standard drugs (Hamilton et al., 1984); melanoma with a slow growth fraction (Girard et al., 1973); breast carcinoma including sensitive, doxorubicin-resistant (P-glycoprotein-positive) (Taylor et al., 1991), and mitoxantrone-resistant (P-glycoprotein-negative) (Futscher et al., 1994) lines; sensitive and multidrug-resistant colon carcinoma (Noguchi et al., 1979; Dalton et al., 1988); and multidrug-resistant lung carcinoma (P-glycoprotein-negative) (Girard et al., 1973). It also has sensitive (Goldin et al., 1961) and multidrug-resistant (P-glycoprotein-positive) (Salmon and Hersh, 1994) murine L1210 leukemia cells.

[2] = test system: L1210 leukemia, Mdr; test: Cytotoxicity in tumor cell culture, MTT assay; assay type: cell-based, murine; details: MTT assay, multidrug-resistant; read-out: IC50 against human mouse tumors, L1210 leukemia Mdr
Text: as §1

[3] = substituent constant, from Hansch and Leo or calculated using Clog P software; cited from earlier work
[4] = test system: A-549 lung; test: Cytotoxicity in tumor cell culture, SRB assay; assay type: cell-based, human; details: read-out: IC50 against human mouse tumors, A-549 lung
Text: as §1

[5] = test system: OVCAR3 ovarian; test: Cytotoxicity in tumor cell culture, SRB assay; assay type: cell-based, human; details: read-out: IC50 against human mouse tumors, OVCAR3 ovarian
Text: as §1

[6] = test system: A375 melan; test: Cytotoxicity in tumor cell culture, SRB assay; assay type: cell-based, human; details: read-out: IC50 against human mouse tumors, A375 melan
Text: as §1

[7] = test system: MCF7 breast, Sens; test: Cytotoxicity in tumor cell culture, SRB assay; assay type: cell-based, human; details: read-out: IC50 against human mouse tumors, MCF7 breast Sens
Text: as §1

[8] = test system: MCF7 breast, mitox (mitoxantrone-resistant); test: Cytotoxicity in tumor cell culture, SRB assay; assay type: cell-based, human; details: mitoxantrone-resistant; read-out: IC50 against human mouse tumors, MCF7 breast mitox
Text: as §1

[9] = test system: MCF7 breast, Dox (doxorubicin-resistant); test: Cytotoxicity in tumor cell culture, SRB assay; assay type: cell-based, human; details: doxorubicin-resistant; read-out: IC50 against human mouse tumors, MCF7 breast Dox
Text: as §1

[10] = test system: 8226 myeloma, Sens (drug-sensitive); test: Cytotoxicity in tumor cell culture, SRB assay; assay type: cell-based, human
Text: as §1

[11] = test system: WiDr colon, Sens; test: Cytotoxicity in tumor cell culture, SRB assay; assay type: cell-based; details: read-out: IC50 against human mouse tumors, WiDr colon Sens
Text: as §1

[12] = test system: 8226 myeloma, Res (imexon-resistant); test: Cytotoxicity in tumor cell culture, SRB assay; assay type: cell-based; details: line made resistant to imexon; read-out: IC50 against human mouse tumors, 8226 myeloma Res
Text: as §1

[13] = test system: WiDr colon, res; test: Cytotoxicity in tumor cell culture, SRB assay; assay type: cell-based; details: multidrug-resistant; read-out: IC50 against human mouse tumors, WiDr colon res
Text: as §1

[14] = cited from earlier work
[15] = against sensitive myeloma, values repeated from Table 3 (μM there), read-out: IC50
[16] = drug-sensitive line, read-out: IC50 against human mouse tumors, 8226 myeloma Sens
[17] = intravenous injection, after distribution
[18] = single oral doses of about 0.6 mg/kg to about […]

Structure (SMILES)	IC50 [1] [µM]	IC50 [2] [µM]	π [3]	IC50 [4] [µM]	IC50 [5] [µM]	IC50 [6] [µM]	IC50 [7] [µM]	IC50 [8] [µM]	IC50 [9] [µM]	Log(1/C) ([10]; against sensitive myeloma)	IC50 [10, 15] [µM]	IC50 [10, 16] [µM]	IC50 [11] [µM]	IC50 [12] [µM]	IC50 [13] [µM]	oral absorption ([14]; in vivo)	other results
N#CC1CN1C(=O)Nc1ccc(Cl)c(Cl)c1 (stereo not shown) [Compound 18, 2-Cyanoaziridine-1-[N-(3,4-dichlorophenyl)]carboxamide]	2.6	7.2	3.42	7.5	5.6	5.9	4.6	4.4	7.2	5.96	1.1	1.1	7	2.7	14		
N#CC1CN1C(=O)Nc1ccc(Cl)cc1Cl (stereo not shown) [Compound 17, 2-Cyanoaziridine-1-[N-(2,4-dichlorophenyl)]carboxamide]	207	33	3.42	2.5	35	> 39	0.9	0.35	1.1	5.33	4.7	4.7	2.2	9.4	1.9		
CC(=O)c1cccc(NC(=O)N2CC2C#N)c1 (stereo not shown) [Compound 20, 2-Cyanoaziridine-1-[N-(3-acetylphenyl)]carboxamide]	> 39	> 39		> 41	> 39	> 39	> 16	> 16	> 16			> 39	40	> 39	> 41		
N#CC1CN1C(=O)Nc1ccc(C(F)(F)F)cc1 (stereo not shown) [Compound 15, 2-Cyanoaziridine-1-[N-(4-trifluorophenyl)]carboxamide]	7.8	7.1	2.88	4.3	5.9	11.8	1.5	1.3	1.4	5.09	8.2	8.2	1.3	7.8	5.8		
N#CC1CN1C(=O)Nc1ccc(F)cc1 (stereo not shown) [Compound 14, 2-Cyanoaziridine-1-[N-(4-fluorophenyl)]carboxamide]	7.3	5.9	2.14	6.2	5.9	3.4	1.9	2.7	2.4	5.30	5	5	2.1	5.9	9		
COc1cccc2c1C(=O)c1c(O)c3c(c(O)c1C2=O)C[C@@](O)(C(=O)CO)C[C@@H]3O[C@H]1C[C@H](N)[C@H](O)[C@H](C)O1 [Doxorubicin, 5,12-Naphthacenedione, (8s-cis)-10-[(3-amino-2,3,6-trideoxy-a-L-lyxo-hexopyranosyl)oxy]-7,8,9,10-tetrahydro-6,8,11-trihydroxy-8-(hydroxyacetyl)-1-methoxy-hydrochloride]																absorbed poorly	elimination half-life ([14]; in vivo): about 30 hours
CC[C@]1(O)C[C@H]2CN(CCc3c([nH]c4ccccc34)[C@@](C(=O)OC)(c3cc4c(cc3OC)N(C=O)[C@H]3[C@@](O)(C(=O)OC)[C@H](OC(C)=O)[C@]5(CC)C=CCN6CC[C@]43[C@@H]65)C2)C1 [Vincristine]																Unpredictable absorption	terminal half-life ([14]; plasma): about 24 hours
CCOC(=O)CNC(=O)N1CC1C#N (stereo not shown) [Compound 12]	13	13	1.01	24		51	15	11	17	4.60	25	25	31	30	33		
CC(=O)Oc1ccccc1NC(=O)N1CC1C#N (stereo not shown) [Compound 21, 2-Cyanoaziridine-1-[N-(2-acetoxyphenyl)]carboxamide]	9.6	7.9	1.45	5.6	10	7.9	3.6	3.5	3.2	5.06	8.7	8.7	3.3	9.6	9		
Cc1c2oc3c(C)ccc(C(=O)N[C@@H]4C(=O)N[C@H](C(C)C)C(=O)N5CCC[C@H]5C(=O)N(C)CC(=O)N(C)[C@@H](C(C)C)C(=O)O[C@@H]4C)c3nc-2c(C(=O)N[C@@H]2C(=O)N[C@H](C(C)C)C(=O)N3CCC[C@H]3C(=O)N(C)CC(=O)N(C)[C@@H](C(C)C)C(=O)O[C@@H]2C)c(N)c1=O [Actinomycin D] (I: T[dV]P[Sar][NMeV] / II: T[dV]P[Sar][NMeV]; ester I:1-I:C, II:1-II:C; linker I:N-II:N via Actinocin(9to1))																	dose excreted intact into the bile ([14]; in vivo): Half; dose excreted intact into the urine ([14]; in vivo): 10%; half-life ([14]; in vivo): about 36 hours; passage of the blood-brain barrier ([14]; in vivo): does not pass the blood-brain barrier
CC[C@]1(O)C[C@@H]2CN(CCc3c([nH]c4ccccc34)[C@@](C(=O)OC)(c3cc4c(cc3OC)N(C)[C@H]3[C@@](O)(C(=O)OC)[C@H](OC(C)=O)[C@]5(CC)C=CCN6CC[C@]43[C@@H]65)C2)C1 [Vinblastine]																Unpredictable absorption	dose recovered in the feces after biliary excretion ([14]; in vivo): about 10%; plasma half-life, first [14, 17]: approximately 1 hours; plasma half-life, second [14, 17]: ~20 h
N.N.[Cl][Pt][Cl] [Cisplatin]																not absorbed orally	
COc1cccc2c1C(=O)c1c(O)c3c(c(O)c1C2=O)C[C@@](O)(C(C)=O)C[C@@H]3O[C@H]1C[C@H](N)[C@H](O)[C@H](C)O1 [Daunorubicin, 5,12-Naphthacenedione, (8S-cis)-8-acetyl-10-[(3-amino-2,3,6-trideoxy-a-L-lyxo-hexanopyranosyl)oxy]-7,8,9,10-tetrahydro-6,8,11-trihydroxy-10-methoxy-, hydrochloride]																poor	half-life of elimination ([14]; in vivo): about 19 hours
O=NN(CCCl)C(=O)NC1CCCCC1 [Lomustine, 1-(2-chloro-ethyl)-3-cyclohexyl-1 nitrosourea]																	radioactivity excreted in the form of degradation products within 24 hours ([14]; oral radioactive lomustine, about 30 mg/m^2 to 100 mg/m^2): about half
COc1cccc2c1C(=O)c1c(O)c3c(c(O)c1C2=O)C[C@@](O)([C@H](C)O)C[C@@H]3O[C@H]1C[C@H](N)[C@H](O)[C@H](C)O1 [daunorubicinol]																	half-life of active metabolite ([14]; metabolite of daunorubicin): about 27 hours
O=C(O)CCCc1ccc(N(CCCl)CCCl)cc1 [Chlorambucil, 4-[bis(2-chlorethyl)amino] benzenebutanoic acid]																rapidly and completely absorbed	terminal half-life of the parent drug [14, 18]: about 1.5 hours; time to peak plasma chlorambucil levels [14, 18]: one
N#CC1CN1C(=O)Nc1ccc(S(N)(=O)=O)cc1 (stereo not shown) [Compound 22, 2-Cyanoaziridine-1-[N-(4-sulfamylphenyl)]carboxamide]	> 38	> 38		> 38	188	188	> 15	> 15	> 15			> 38	> 38	> 38	> 38		
CCOC(=O)c1ccc(NC(=O)N2CC2C#N)cc1 (stereo not shown) [Compound 19, 2-Cyanoaziridine-1-[N-(4-ethoxycarbonylphenyl)]carboxamide]	9.7	9.7		2.9	7.7	5.8	2.3	3.3	2.1			3	2.5	3	4.2		
